Measured values from ChEMBL document CHEMBL3046714, “Synthesis and Precocious Metamorphosis-Inducing Activity of 3-(1-Alkenyl) pyridines” (J Pestic Sci, 2000).

Legend:
Bombyx mori [1] = assay: Precocious metamorphosis-inducing activity in Bombyx mori Shunrei x Shougetsu fourth-instar larvae assessed as change in body weight compound applied topically measured every 12 hr during fourth-instar period; format: functional
[2] = Toxicity in Bombyx mori Shunrei x Shougetsu fourth-instar larvae assessed as mortality at 160 ug applied topically; format: organism-based; conditions: in vivo, topical or ocular
Bombyx mori [3] = assay: Precocious metamorphosis-inducing activity in Bombyx mori Shunrei x Shougetsu fourth-instar larvae assessed as change in body weight at >80 ug applied topically measured every 12 hr during fourth-instar period; format: functional
Bombyx mori [4] = assay: Precocious metamorphosis-inducing activity in Bombyx mori Shunrei x Shougetsu fourth-instar larvae assessed as change in body weight at >160 ug applied topically measured every 12 hr during fourth-instar period; format: functional

Row | Structure (SMILES) | ED50 (Bombyx mori [1]) [µg] | mortality [2] [%] | Activity (Bombyx mori [3]) [%] | Activity (Bombyx mori [4]) [%]
1 | C(=C/c1cccnc1)/c1ccccc1 | >80 | 100 | 7 | 
2 | C(=C\c1cccnc1)/c1ccccc1 | >160 |  |  | 9
3 | CCCCCC=C(c1ccccc1)c1cccnc1 | >160 |  |  | 35
4 | CCCCC=C(c1ccccc1)c1cccnc1 | 102 |  |  | 
5 | CC(C)CC=C(c1ccccc1)c1cccnc1 | 34 |  |  | 
6 | CCCC=C(c1ccccc1)c1cccnc1 | 50 |  |  | 
7 | CCC=C(c1ccccc1)c1cccnc1 | 29 |  |  | 
8 | CC(=Cc1ccccc1)c1cccnc1 | 42 |  |  | 
9 | C(=C(c1ccccc1)c1cccnc1)c1ccccc1 | 144 |  |  | 
10 | CC=C(c1ccccc1)c1cccnc1 | 26 |  |  | 
11 | CC=C(C)c1cccnc1 | >160 |  |  | 20
12 | C=C(c1ccccc1)c1cccnc1 | 56 |  |  | 
13 | CCOC(=O)/C=C/c1cccnc1 | >160 |  |  | 0
14 | CC=Cc1cccnc1 | >160 |  |  | 0
15 | CCOC(=O)/C=C(/C)c1cccnc1 | >160 |  |  | 0
16 | CCOC(=O)C=C(c1ccccc1)c1cccnc1 | 89 |  |  | 
17 | CCOC(=O)/C=C(\C)c1cccnc1 | >160 |  |  | 5
18 | CC(C)C=C(c1ccccc1)c1cccnc1 | 27 |  |  | 
19 | CCC(c1ccccc1)c1cccnc1 (racemic) | 42 |  |  | 
